Data published in US20250099033A1, “HIGH THROUGHPUT SCREENING METHOD FOR THE IDENTIFICATION OF PS[…]” (FRIEDRICH MIESCHER INSTITUTE FOR BIOMEDICAL RESEARCH, priority 2022, published 2025).
Entries after “also recorded” stand apart in the source; their conditions may differ.

Tested on: Tlx3 positive layer 5 IT neurons
Assay: Widefield calcium imaging of dorsal cortex in Tlx3-Cre x Ai148 mice (GCaMP6 in layer 5 IT neurons), before and after drug injection
Format: in vivo
Settings: for Pearson's correlation of activity between cortical regions (all region pairs): single injection, after vs naïve; for long-range activity correlations (drug induced difference, normalized to naïve): region pairs above 0.9 of the bregma-lambda distance
Source text: All animal procedures were approved by and carried out in accordance with guidelines of the Veterinary Department of the Canton Basel-Stadt, Switzerland. The mice used in this study were kept on a C57BL/6 background and were of the following genotype: 6 C57/Bl6 (Charles River Laboratories), 4 Emx1-Cre mice (Gorski et al., 2002), 4 Cux2-CreERT2 (Franco et al., 2012), 7 Scnn1a-Cre (Madisen et al., 2010), 15 Tlx3-Cre(PL56) (Gerfen et al., 2013), 3 Ntsr1-Cre (Gong et al., 2007), 2 PV-Cre (Hippenmeyer et al., 2005), 6 VIP-Cre (Taniguchi et al., 2011), 5 Sst-Cre (Taniguchi et al., 2011) were used for widefield calcium imaging. Ai148 ((Daigle et al., 2018), Jackson Laboratories, stock #030328) mice were used as breeders to drive GCaMP6f in Cre positive neurons. 7 C57BL/6 were used for experiments controlling for hemodynamic responses. To induce expression of Cre in the Cux2-CreERT2 line, mice were kept for at least 1 week on Tamoxifen containing food (Envigo, 400 mg Tamoxifen per kg of food) as their only food source. Mice were group housed in a vivarium (light/dark cycle: 12/12 hours). Experimental mice used were of both sexes.
For all surgical procedures, mice were anesthetized using a mixture of Fentanyl (0.05 mg/kg; Actavis), Midazolam (5.0 mg/kg; Dormicum, Roche) and Medetomidine (0.5 mg/kg; Domitor, Orion). In a subset of mice (6 C57/Bl6, 4 Emx1-Cre, 4 Sst-Cre mice) we injected an AAV coated with the PHP.eb capsid (Chan et al., 2017) retroorbitally ([…] each eye of at least 10^13 GC/ml) to drive expression pan-neuronally or cell type specificly of GCaMP6 under either the Ef1α or hSyn promoter. For hemodynamic response control experiments, the inventors used an AAV PHP.eb Ef1α-GFP to pan-neuronally transfect GFP. To improve optical access to the cortex, they implanted crystal skull cranial windows (Kim et al., 2016). Prior to removing the skull plate overlying dorsal cortex, they zeroed bregma with a digital readout attached to the stereotax for later use as a landmark. Superglue (Pattex) was used to close the craniotomy. […] A custom-machined titanium head bar was attached to the skull using dental cement (Paladur, Heraeus). An epifluorescence overview image was taken to mark reference points on the dorsal cortical surface. Anesthesia was antagonized by an intraperitoneal injection of a mixture of Flumazenil (0.5 mg/kg; Anexate, Roche) and Atipamezole (2.5 mg/kg; Antisedan, Orion Pharma), analgesia was achieved by injecting Buprenorphine (0.1 mg/kg; Reckitt Benckiser Healthcare (UK) Ltd.) and Metacam (5 mg/kg; Boehringer Ingelheim), and mice were subsequently returned to their home cage. Imaging commenced not before 1 week after headbar implantation and not before at least 3 weeks had passed in the cases in which AAVs had been used to transfect neurons. Clozapine (Sigma), Aripiprazole (Otsuka Pharmaceutical), Haloperidol (Janssen) and Amphetamine (Hänseler) were intraperitoneally injected at […] body weight, respectively.
For all experiments we used a virtual reality setup as previously described (Leinweber et al., 2014). Mice were head-fixed and free to run on a spherical, air supported Styrofoam ball. Rotation of the ball was coupled to movement in a virtual reality environment. A virtual corridor was projected (Samsung SP-F10M) onto a toroidal screen positioned in front of the mice covering approximately 240 degrees horizontally and 100 degrees vertically of the field of view. […]

Compound	Pearson's correlation of activity between cortical regions (all region pairs)	long-range activity correlations (drug induced difference, normalized to naïve)	short-range activity correlations (drug induced difference, normalized to naïve) (region pairs below 0.9 of the bregma-lambda distance)
CC(N)Cc1ccccc1 (stereo not drawn) [Amphetamine]	did not affect activity correlations; also recorded: absent	–	–
O=C(CCCN1CCC(O)(c2ccc(Cl)cc2)CC1)c1ccc(F)cc1 [Haloperidol]	mimicked the decorrelation of dorsal cortex activity observed with Clozapine; also recorded: decorrelation of the activity patterns of Tlx3 positive layer 5 IT neurons was preserved	reduced long-range activity correlations	–
O=C1CCc2ccc(OCCCCN3CCN(c4cccc(Cl)c4Cl)CC3)cc2N1 [Aripiprazole]	mimicked the decorrelation of dorsal cortex activity observed with Clozapine; also recorded: decorrelation of the activity patterns of Tlx3 positive layer 5 IT neurons was preserved	significantly reduced	significantly reduced
